Data published in ChEMBL document CHEMBL1201862, “PubChem BioAssay data set” (2004).
Calls of active or inactive are those of the source.

Columns and labels:
Protein RecA = molecular target: T1, Protein RecA (Mycobacterium tuberculosis, UniProt P9WHJ3); assay: Fluorescence Cell-Free Homogeneous Dose Retest to Identify Inhibitors of RecA-Intein Splicing Activity. [Related pubchem assays (depositor defined):AID2097, AID2223, AID489010, AID492950]; format: functional
T1 sequence (P9WHJ3 whole entry): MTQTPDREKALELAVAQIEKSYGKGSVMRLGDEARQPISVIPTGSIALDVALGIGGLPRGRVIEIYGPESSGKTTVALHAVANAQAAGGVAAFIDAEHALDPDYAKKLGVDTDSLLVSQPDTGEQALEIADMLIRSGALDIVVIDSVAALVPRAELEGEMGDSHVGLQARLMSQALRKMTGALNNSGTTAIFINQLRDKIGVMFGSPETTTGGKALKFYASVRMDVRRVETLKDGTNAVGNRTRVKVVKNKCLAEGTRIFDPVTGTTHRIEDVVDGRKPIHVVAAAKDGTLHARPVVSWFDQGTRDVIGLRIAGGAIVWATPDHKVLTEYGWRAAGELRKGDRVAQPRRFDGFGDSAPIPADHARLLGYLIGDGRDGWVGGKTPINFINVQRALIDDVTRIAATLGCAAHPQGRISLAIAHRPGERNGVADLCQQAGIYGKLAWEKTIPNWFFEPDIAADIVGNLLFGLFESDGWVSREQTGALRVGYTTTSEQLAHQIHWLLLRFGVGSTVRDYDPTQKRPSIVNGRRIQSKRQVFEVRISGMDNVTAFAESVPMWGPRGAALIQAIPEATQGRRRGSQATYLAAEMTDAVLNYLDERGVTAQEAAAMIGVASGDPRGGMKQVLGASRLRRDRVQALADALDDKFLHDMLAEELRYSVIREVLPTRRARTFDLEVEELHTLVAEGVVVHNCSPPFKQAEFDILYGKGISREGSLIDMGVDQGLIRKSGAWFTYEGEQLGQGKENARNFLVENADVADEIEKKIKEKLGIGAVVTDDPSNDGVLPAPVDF

[1] = molecular target: T2, Histone-lysine N-methyltransferase NSD2 (Homo sapiens, UniProt O96028); format: biochemical
T2 sequence (O96028 whole entry): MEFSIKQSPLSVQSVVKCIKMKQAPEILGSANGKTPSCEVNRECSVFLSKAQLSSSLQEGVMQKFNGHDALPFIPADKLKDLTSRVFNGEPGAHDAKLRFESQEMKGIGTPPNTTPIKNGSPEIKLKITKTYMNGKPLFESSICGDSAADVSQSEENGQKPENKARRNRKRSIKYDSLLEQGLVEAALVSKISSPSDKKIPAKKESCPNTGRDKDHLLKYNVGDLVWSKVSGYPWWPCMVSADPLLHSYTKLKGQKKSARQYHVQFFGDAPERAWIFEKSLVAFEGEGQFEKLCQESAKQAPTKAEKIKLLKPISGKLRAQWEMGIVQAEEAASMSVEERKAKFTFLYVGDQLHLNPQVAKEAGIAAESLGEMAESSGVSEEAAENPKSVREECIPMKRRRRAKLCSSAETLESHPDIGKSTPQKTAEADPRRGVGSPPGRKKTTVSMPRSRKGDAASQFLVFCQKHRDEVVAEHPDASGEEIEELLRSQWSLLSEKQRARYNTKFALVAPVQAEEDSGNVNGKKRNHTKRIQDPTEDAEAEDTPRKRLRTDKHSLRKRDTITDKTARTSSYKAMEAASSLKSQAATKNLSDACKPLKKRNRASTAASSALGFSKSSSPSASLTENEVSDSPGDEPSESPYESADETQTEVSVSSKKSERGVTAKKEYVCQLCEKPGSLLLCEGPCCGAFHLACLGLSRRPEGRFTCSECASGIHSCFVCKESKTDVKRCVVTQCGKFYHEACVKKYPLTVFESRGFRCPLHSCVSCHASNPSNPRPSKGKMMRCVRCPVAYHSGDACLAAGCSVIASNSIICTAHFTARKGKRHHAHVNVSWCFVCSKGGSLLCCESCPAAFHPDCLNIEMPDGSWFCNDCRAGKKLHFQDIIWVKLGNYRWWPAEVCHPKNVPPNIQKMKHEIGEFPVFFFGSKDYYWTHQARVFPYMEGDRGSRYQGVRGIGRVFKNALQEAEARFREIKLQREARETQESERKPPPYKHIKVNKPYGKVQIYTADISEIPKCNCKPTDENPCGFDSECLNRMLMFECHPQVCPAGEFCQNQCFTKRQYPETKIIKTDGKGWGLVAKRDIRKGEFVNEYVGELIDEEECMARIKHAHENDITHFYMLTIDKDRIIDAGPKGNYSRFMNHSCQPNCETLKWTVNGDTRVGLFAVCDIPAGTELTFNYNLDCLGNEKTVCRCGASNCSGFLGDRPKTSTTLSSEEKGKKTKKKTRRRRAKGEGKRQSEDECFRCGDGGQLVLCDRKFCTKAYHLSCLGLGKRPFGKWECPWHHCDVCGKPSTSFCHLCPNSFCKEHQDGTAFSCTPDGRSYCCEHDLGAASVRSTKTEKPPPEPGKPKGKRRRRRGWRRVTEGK

[2] = test system: Streptococcus sp. 'group A'; assay: Streptococcus pyogenes SK(-)GAS viability under kanamycin – luminescence, BacTiterGlo, confirmation, counter-screen for streptokinase expression inhibitor project, dose response (AID 1900); format: functional, organism-based
[3] = molecular target: Dual specificity tyrosine-phosphorylation-regulated kinase 1A (Rattus norvegicus, UniProt Q63470); format: biochemical, Homo sapiens
[4] = molecular target: Heat shock protein HSP 90-alpha (Homo sapiens, UniProt P07900); assay: Luminescence-based dose response biochemical high throughput screening assay for inhibitors of the Heat Shock Protein 90 (HSP90). [Related pubchem assays: 1831 (Summary AID.), 1846 (Confirmation screen.), 1789 (Primary screen.)]
Streptococcus = assay: GAS UMAA2166 growth inhibition – luminescence, BacTiterGlo, counter-screen for streptokinase expression inhibitor project, dose response (AID 1915); format: functional, organism-based;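 note: potency for reduction of bacterial viability or growth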
BJ = assay: BJ-TERT-LT-ST fibroblast viability loss – cell-based, RAS-independent, luminescence, dose response (AID 1935); format: functional; conditions: Homo sapiens;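 note: BJ fibroblasts immortalized with TERT plus LT and ST oncogenes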
[5] = alpha-synuclein stem-loop luciferase translation blockers – H4 neuroglioma cells, luminescence, confirmation (AID 1988); format: functional, cell-based
[6] = Luminescence Cell-Based Dose Response HTS to Identify Inhibitors of 5'UTR Stem-Loop Driven Prion Protein mRNA Translation in H4 Neuroglioblastoma Cells. [Related pubchem assays: 1827 (Project Summary), 1813 (Primary HTS)]; format: functional
[7] = molecular target: Casein kinase I isoform alpha (Homo sapiens, UniProt P48729); format: functional
[8] = molecular target: MAP kinase-interacting serine/threonine-protein kinase 2 (Homo sapiens, UniProt Q9HBH9); format: functional
[9] = molecular target: Serine/threonine-protein kinase N2 (Homo sapiens, UniProt Q16513); format: functional
Sequence of Serine/threonine-protein kinase N2 (Q16513 whole entry): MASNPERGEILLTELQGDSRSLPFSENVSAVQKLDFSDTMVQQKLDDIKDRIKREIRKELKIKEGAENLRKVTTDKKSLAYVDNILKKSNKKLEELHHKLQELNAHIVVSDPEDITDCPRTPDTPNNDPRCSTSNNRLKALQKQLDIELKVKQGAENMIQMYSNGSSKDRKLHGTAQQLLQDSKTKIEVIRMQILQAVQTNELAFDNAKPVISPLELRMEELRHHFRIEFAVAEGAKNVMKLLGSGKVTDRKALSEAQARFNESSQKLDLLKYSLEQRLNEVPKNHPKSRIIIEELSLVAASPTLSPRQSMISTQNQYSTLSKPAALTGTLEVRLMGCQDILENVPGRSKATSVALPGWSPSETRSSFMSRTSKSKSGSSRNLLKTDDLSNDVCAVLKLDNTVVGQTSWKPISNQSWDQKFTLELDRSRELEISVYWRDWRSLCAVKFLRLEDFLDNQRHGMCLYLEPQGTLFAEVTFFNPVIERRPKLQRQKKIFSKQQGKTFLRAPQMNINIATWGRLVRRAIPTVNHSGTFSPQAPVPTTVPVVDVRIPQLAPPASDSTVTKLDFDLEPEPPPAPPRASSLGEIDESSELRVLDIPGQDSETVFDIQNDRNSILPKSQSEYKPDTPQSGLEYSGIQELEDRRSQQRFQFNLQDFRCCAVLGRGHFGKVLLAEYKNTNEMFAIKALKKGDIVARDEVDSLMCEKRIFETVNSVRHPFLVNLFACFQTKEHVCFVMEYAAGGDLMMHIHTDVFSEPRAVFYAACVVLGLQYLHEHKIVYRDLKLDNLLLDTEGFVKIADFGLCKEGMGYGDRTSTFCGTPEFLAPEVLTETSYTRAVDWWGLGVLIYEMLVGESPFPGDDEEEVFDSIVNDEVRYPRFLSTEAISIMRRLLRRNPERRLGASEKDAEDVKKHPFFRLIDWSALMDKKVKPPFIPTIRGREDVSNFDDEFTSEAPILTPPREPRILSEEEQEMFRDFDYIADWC

Sequence of MAP kinase-interacting serine/threonine-protein kinase 2 (Q9HBH9 whole entry): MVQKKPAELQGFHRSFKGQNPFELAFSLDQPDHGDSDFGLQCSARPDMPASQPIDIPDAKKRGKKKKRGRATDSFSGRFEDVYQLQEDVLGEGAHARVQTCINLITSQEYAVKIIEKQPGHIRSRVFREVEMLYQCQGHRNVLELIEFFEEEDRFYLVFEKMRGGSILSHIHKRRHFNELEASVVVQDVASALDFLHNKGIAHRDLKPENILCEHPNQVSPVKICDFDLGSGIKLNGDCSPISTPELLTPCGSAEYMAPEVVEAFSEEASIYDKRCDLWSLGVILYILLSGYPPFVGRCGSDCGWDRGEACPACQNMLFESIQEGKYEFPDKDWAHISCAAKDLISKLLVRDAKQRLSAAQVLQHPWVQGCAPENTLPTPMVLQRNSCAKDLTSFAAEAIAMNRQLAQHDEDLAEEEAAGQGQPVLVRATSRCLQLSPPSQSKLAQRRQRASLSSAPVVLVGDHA
Sequence of Casein kinase I isoform alpha (P48729 whole entry, canonical isoform): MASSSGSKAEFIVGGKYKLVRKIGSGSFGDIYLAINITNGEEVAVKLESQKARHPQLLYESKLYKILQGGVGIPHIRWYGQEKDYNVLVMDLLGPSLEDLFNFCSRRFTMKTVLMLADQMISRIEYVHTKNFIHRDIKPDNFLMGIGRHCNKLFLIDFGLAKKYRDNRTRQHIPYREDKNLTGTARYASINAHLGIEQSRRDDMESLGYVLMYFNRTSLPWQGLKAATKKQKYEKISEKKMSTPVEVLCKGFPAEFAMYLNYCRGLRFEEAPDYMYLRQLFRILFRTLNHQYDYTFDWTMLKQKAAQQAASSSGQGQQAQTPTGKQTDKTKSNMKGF

Compound	EC50 (Protein RecA)	AC50 [1]	EC50 [2]	AC50 [3]	EC50 (Streptococcus)	further results
Cc1ccc(S(=O)(=O)/N=C2\C=C(Nc3cccc(C(=O)O)c3)C(=O)c3ccccc32)cc1	0.266 µM (active)	0.422 µM (active)	4.62 µM (active)	2.57 µM (active)	14.3 µM (active)	IC50 [4]: 0.524 µM (active)
Cc1ccc(C(=O)NC2(O)C(=O)c3ccccc3C2=O)cc1C	15.9 µM (active)	6.83 µM (active)				
O=[N+]([O-])c1c(Nc2ccccn2)cc(Cl)c2nonc12	1.02 µM (active)					EC50 (BJ): 3.95 µM (inconclusive)
CC[C@@H](C)[C@H](CNC)NC[C@@H](Cc1cccc2ccccc12)NCCc1cccc(C(F)(F)F)c1			4.8 µM (active)	79 µM (active)	7.12 µM (active)	EC50 [5]: 7.84 µM (active); EC50 [6]: > 120 µM (not active)
CC(C)(CO)CNc1nccc(-c2c(-c3ccc(F)cc3)nc3c(CC4CC4)nccn23)n1						Ki [7]: 1.26 µM (active); Ki [8]: > 10 µM (inactive); Ki [9]: > 7.94 µM (inactive)
